From US9057727B2, “Screening methods using G-protein coupled receptors and related compositions” (The General Hospital Corporation, priority 2007, dated 2015)
Square brackets hold non-standard residues; d marks the D form. Ends that are not written are not given here. Peptide text beside a SMILES is read from it. hArg = N=C(N)NCCCC[C@H](N)C(=O)O; Nle = CCCC[C@H](N)C(=O)O; Aib = CC(C)(N)C(=O)O

Legend:
[1] = biological target: T1, hPTHR (Homo sapiens, UniProt Q03431); experiment: Inositol phosphate production in COS-7/hPTHR cells; assay type: cell-based; design: expressed in transfected cells; host or cells: COS-7, transient (Fugene-6); settings: basal 330 ± 8 cpm/well not subtracted
T1 sequence (Q03431 27-593): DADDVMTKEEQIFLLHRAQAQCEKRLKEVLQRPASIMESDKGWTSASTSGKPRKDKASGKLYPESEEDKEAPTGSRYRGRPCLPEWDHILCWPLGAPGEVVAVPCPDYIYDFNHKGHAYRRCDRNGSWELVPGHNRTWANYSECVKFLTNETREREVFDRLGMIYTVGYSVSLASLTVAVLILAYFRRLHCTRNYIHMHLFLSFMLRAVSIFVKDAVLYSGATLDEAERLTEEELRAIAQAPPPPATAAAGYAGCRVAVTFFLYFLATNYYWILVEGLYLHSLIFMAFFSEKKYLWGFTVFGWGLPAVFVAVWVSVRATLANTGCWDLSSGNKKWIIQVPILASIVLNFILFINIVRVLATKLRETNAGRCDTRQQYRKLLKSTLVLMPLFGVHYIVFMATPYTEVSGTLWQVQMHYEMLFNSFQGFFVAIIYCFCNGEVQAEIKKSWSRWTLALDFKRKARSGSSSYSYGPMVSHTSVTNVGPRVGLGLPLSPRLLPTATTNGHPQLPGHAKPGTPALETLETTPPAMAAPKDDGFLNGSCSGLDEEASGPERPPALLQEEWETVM
Protocol: The capacity of the ligands to stimulate the production of inositol phosphates (IPs) was assessed in COS-7 cells transiently transfected with the hPTHR (FIG. 7B). Cells were treated for 30 minutes at room temperature with varying concentrations of ligand. […] Data are means (±s.e.m.) of four (FIG. 7A) or five (FIG. 7B) experiments, each performed in duplicate.
The stimulation of intracellular inositol phosphates (IPs) was measured in transiently transfected COS-7 cells that were pre-labeled (16 hours) with ^3H-myo-D-inositol (2 μCi/ml). Cells were treated with ligand in DMEM containing fetal bovine serum (10%) and LiCl (30 mM) for 30 minutes; cells were lysed with ice cold trichloro acetic acid (5%) and IPs were extracted from the acid-lysates by ion-exchange filtration, as described (Shimizu et al., J. Biol. Chem. 276:49003-49012 (2001)).

[2] = biological target: T2, human PTHR, G protein-uncoupled conformation (R^0) (Homo sapiens, UniProt Q03431); experiment: Competition binding to R0 conformation of hPTHR (COS-7 membranes, GTPγS, 125I-PTH(1-34) tracer); settings: Table 5; for R0:RG: fold weaker affinity for R0 than RG
T2 construct: expressed in transfected cells; host or cells: COS-7, transient (Fugene-6)
T2 sequence (Q03431 27-593): T1 sequence (Q03431 27-593)
Procedure, shortened: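 Bound versus free radioligand was separated by vacuum filtration after 90 min incubation of COS-7 hPTHR membranes (20-100 μg/mL) with tracer and competing peptides. Non-specific binding came from a saturating unlabeled analog.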

[3] = biological target: T1, hPTHR; experiment: Delayed cAMP response after ligand wash-out in HKRK-B64 cells; assay type: cell-based; design: expressed in transfected cells; settings: HKRK-B64, 60 minutes after wash-out; read-out: cAMP response after wash-out, % of maximum response
Protocol: The cells were pre-treated for 10 minutes with either buffer alone (basal) or buffer containing ligand (100 nM); at t=0, the cells were washed, incubated in buffer for the times indicated (wash-out phase), treated with 3-isobutyl-1-methylxanthine (IBMX) for five minutes, and then assessed for intracellular cAMP. […] The cAMP level in cells treated with IBMX in the absence of ligand was 2.0±0.3 pmole/well. Data are means (±s.e.m.) of three experiments, each performed in duplicate. […] Analogs were similarly assessed in HKRK-B64 cells (90,000 hPTHRs/cell) at a single time-point, 60 minutes after ligand wash-out (FIG. 5B). For each peptide, the data are expressed as a percentile of the maximum cAMP responses (indicated in side panel) produced in cells treated concomitantly with that ligand and IBMX for 10 minutes and omitting the wash-out phase. […] Data are means (±s.e.m) of four experiments, each performed in triplicate.
The capacity of the ligands to produce sustained (or delayed) cAMP signaling responses was further examined in HKRK-B64 cells, which express the hPTHR at a more physiological level than do HKRK-B7 cells (90,000 per cell vs. 950,000/cell).
The capacities of ligands to produce a delayed cAMP response in cells after a brief exposure to the ligand was assessed as follows. The cells in 24-well plates were rinsed in binding buffer (50 mM Tris-HCl, pH 7.7, 100 mM NaCl, 5 mM KCl, 2 mM CaCl2, 5% heat-inactivated horse serum, 0.5% heat-inactivated fetal bovine serum) and then incubated in binding buffer with or without a peptide ligand (1×10^−7 or 3×10^−7 M) for 10 minutes at room temperature; the buffer was then removed, the cells were washed three times with binding buffer, incubated further in binding buffer for varying times (1 to 120 minutes); the buffer was then replaced by binding buffer containing IBMX (2 mM), and after an additional five minute incubation, the intracellular cAMP was quantified.

[4] = biological target: T1, hPTHR; experiment: cAMP dose-response in HKRK-B64 cells; assay type: cell-based; design: expressed in transfected cells; settings: for cAMP in HKRK-B64 cells Emax: basal 5.2 ± 0.9 pmole/well not subtracted
Protocol: Cells were treated for 30 minutes at room temperature with varying concentrations of ligand in the presence of IBMX. […] Data are means (±s.e.m.) of four (FIG. 7A) or five (FIG. 7B) experiments, each performed in duplicate.
Following treatment of cells with a ligand, the intracellular cAMP levels were measured by radioimmuno assay, as described (Shimizu et al., J. Biol. Chem. 276:49003-49012 (2001)).

[5] = biological target: T3, human PTHR, G protein-coupled conformation (RG) (Homo sapiens, UniProt Q03431); experiment: Competition binding to RG conformation of hPTHR (COS-7 membranes, GαsND, 125I-[Aib1,3,M]PTH(1-15) tracer); settings: Table 5; read-out: IC50 RG, ^125I-PTH(1-15) + GsND
T3 construct: expressed in transfected cells; host or cells: COS-7, transient (Fugene-6); membranes
T3 sequence (Q03431 27-593): T1 sequence (Q03431 27-593)

[6] = Blood ionized calcium in C57BL/6 mice after intravenous injection; assay type: in vivo; settings: 5 nmol/kg i.v.
Protocol: FIGS. 29A and 29B are graphs showing the effect of R^0 and RG selective PTH analogs on plasma cAMP and calcium in mice. FIGS. 29A and 29B show plasma cAMP concentrations in mice (C57BL/6, males, 3 months) that were administered either vehicle, rPTH(1-34) (SEQ ID NO:130), M-PTH(1-34) (M=A^1,Aib^3,Q^10,Har^11,A^12,W^14,R^19) (SEQ ID NO:12), or E^18,A^22,L^25,K^26-(EALK)-PTHrP(1-30) (SEQ ID NO:90) (5 nmol/kg; n=7 for cAMP, n=4 for calcium) intravenously. […] In the calcium experiment, blood was withdrawn before, and 1, 2, 4 and 6 hours after injection, and ionized calcium was measured using a Ca^++/pH analyzer.
We also characterized the effects of the EALK-PTHrP(1-30) peptide on cAMP production. Three month old male C57BL/6 mice were intravenously injected with either vehicle, rPTH(1-34), M-PTH(1-34) (M=A^1,Aib^3,Q^10,Har^11,A^12,W^14,R^19) or E^18,A^22,L^25,K^26-(EALK)-PTHrP(1-30) (5 nmol/kg). In the cAMP experiment (FIG. 29A), blood was withdrawn 10 minutes after injection and plasma level of cAMP was measured by RIA. In the calcium experiment (FIG. 29B), blood was withdrawn prior to injection and 1, 2, 4, and 6 hours after injection. Ionized calcium was measured using a Ca^++/pH analyzer.

[7] = Bone turnover markers (PINP, osteocalcin, CTX) in mice, daily treatment; assay type: in vivo; settings: 5 nmol/kg i.v. daily, days 6 and 13
Protocol: FIGS. 30A-30F are graphs showing the effects of PTH analogs on plasma bone markers in mice. Mice (C57BL/6, males, 3 months) were intravenously injected daily with either vehicle, rPTH(1-34) (SEQ ID NO:130), M-PTH(1-34) (SEQ ID NO:12), or (EALK)-PTHrP(1-30) (SEQ ID NO:90) (5 nmol/kg; n=7 group) for 14 days. Markers of bone turnover (PINP, CTX and osteocalcin) were assessed by ELISA in blood at day 6 (FIGS. 30A, 30C, and 30E, respectively) and 13 (FIGS. 30B, 30D, and 30F, respectively).
A second set of experiments was performed in which mice received 5 nmol/kg intravenous daily treatment with rPTH(1-34), M-PTH(1-34), or EALK-PTHrP(1-30) for 14 days. Blood samples were taken at days 6 and 13, and markers of bone turnover (PINP, osteocalcin and CTX) were assessed by ELISA.

[8] = Bone structural parameters after two-week daily treatment in mice (Piximus, microCT); assay type: in vivo
Protocol: FIG. 31 is a set of images showing the effects of two-week daily treatment of R^0 and RG ligands on trabecular and cortical bone structure in mice. Mice (C57BL/6, males, 3 months) were treated (i.v.) with either vehicle, rPTH(1-34) (SEQ ID NO:130), M-PTH(1-34) (SEQ ID NO:12), or E^18,A^22,L^25,K^26 (EALK)PTHrP(1-30) (SEQ ID NO:90) (5 nmol/kg; n=7 group), daily for 14 days, and femurs were analyzed by μCT.
As described above, mice were treated intravenously) with either vehicle, rPTH(1-34), M-PTH(1-34), or EALK-PTHrP(1-30) daily for 14 days.

[9] = Calcemic action in normal rats (blood ionized calcium); assay type: in vivo; settings: normal and TPTX rats
Procedure, shortened: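 Corrected (pH 7.4) blood ionized calcium tracked from tail-vein samples before and 1, 2, 4 or 6 h after dosing. Peptides diluted in phosphate-citrate/NaCl/Tween 80 buffer, pH 5.0, given i.v. at 1 ml/kg to groups of six 8-week-old female SD-IGS rats; means ± SE versus vehicle.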

## CCCC[C@H](NC(=O)[C@H](CC(C)C)NC(=O)[C@H](CCC(N)=O)NC(=O)[C@H](Cc1c[nH]cn1)NC(=O)[C@H](CCC(=O)O)NC(=O)[C@H](CO)NC(=O)[C@@H](NC(=O)[C@H](C)N)C(C)C)C(=O)N[C@@H](Cc1c[nH]cn1)C(=O)N[C@@H](CC(N)=O)C(=O)N[C@@H](CC(C)C)C(=O)NCC(=O)N[C@@H](CCCCN)C(=O)N[C@@H](Cc1c[nH]cn1)C(=O)N[C@@H](CC(C)C)C(=O)N[C@@H](C)C(=O)N[C@@H](CO)C(=O)N[C@H](C(=O)N[C@@H](CCC(=O)O)C(=O)N[C@@H](CCCNC(=N)N)C(=O)N[C@@H](CCCC)C(=O)N[C@@H](CCC(N)=O)C(=O)N[C@@H](Cc1c[nH]c2ccccc12)C(=O)N[C@@H](CC(C)C)C(=O)N[C@@H](CCCNC(=N)N)C(=O)N[C@@H](CCCCN)C(=O)N[C@@H](CCCCN)C(=O)N[C@@H](CC(C)C)C(=O)N[C@@H](CCC(N)=O)C(=O)N[C@@H](CC(=O)O)C(=O)N[C@H](C(=O)N[C@@H](Cc1c[nH]cn1)C(=O)N[C@@H](CC(N)=O)C(=O)N[C@@H](Cc1ccc(O)cc1)C(N)=O)C(C)C)C(C)C [[His^5,Nle^8,21,Tyr^34]rPTH(1-34)NH2] (H-AVSEHQL[Nle]HNLGKHLASVER[Nle]QWLRKKLQDVHNY-NH2; N-terminus assumed)
[1]
  IP in COS-7/hPTHR cells Emax: 2,231 ± 229 cpm/well
[2]
  R0:RG: 753
[2]; listed as His^5-PTH(1-34)
  R0:RG: 750
[3]
  Emax: 34%
[4]; 30 min, room temperature, IBMX
  EC50: 2.7 nM
[4]
  cAMP in HKRK-B64 cells Emax: 59 ± 12 picomole/well

## CCCC[C@H](NC(=O)[C@H](CCCNC(=N)N)NC(=O)[C@H](CCC(=O)O)NC(=O)[C@@H](NC(=O)[C@H](CO)NC(=O)[C@H](C)NC(=O)[C@H](CC(C)C)NC(=O)[C@H](Cc1c[nH]cn1)NC(=O)[C@H](CCCCN)NC(=O)CNC(=O)[C@H](CC(C)C)NC(=O)[C@H](CC(N)=O)NC(=O)[C@H](Cc1c[nH]cn1)NC(=O)[C@H](CCCC)NC(=O)[C@H](CC(C)C)NC(=O)[C@H](CCC(N)=O)NC(=O)[C@@H](NC(=O)[C@H](CCC(=O)O)NC(=O)[C@H](CO)NC(=O)[C@@H](NC(=O)[C@H](C)N)C(C)C)[C@@H](C)CC)C(C)C)C(=O)N[C@@H](CCC(N)=O)C(=O)N[C@@H](Cc1c[nH]c2ccccc12)C(=O)N[C@@H](CC(C)C)C(=O)N[C@@H](CCCNC(=N)N)C(=O)N[C@@H](CCCCN)C(=O)N[C@@H](CCCCN)C(=O)N[C@@H](CC(C)C)C(=O)N[C@@H](CCC(N)=O)C(=O)N[C@@H](CC(=O)O)C(=O)N[C@H](C(=O)N[C@@H](Cc1c[nH]cn1)C(=O)N[C@@H](CC(N)=O)C(=O)N[C@@H](Cc1ccc(O)cc1)C(N)=O)C(C)C [[Nle^8,21,Tyr^34]rPTH(1-34)NH2, [Nle^8,21,Tyr^34]rat(r)PTH(1-34)NH2, reference compound]
[1]
  IP in COS-7/hPTHR cells Emax: 2,407 ± 138 cpm/well
[5]
  IC50: 0.86 ± 0.24 nM
[2]; IC50 RR^0, ^125I-PTH(1-34) + GTPγS
  IC50: 4.2 ± 0.5 nM
[2]
  R0:RG: 5
[4]
  cAMP in HKRK-B64 cells Emax: 55 ± 12 picomole/well

## Ala^1,Aib^3-[M]PTH(1-34) (AV[Aib]EIQLMHQ[hArg]AKWLNSMRRVEWLRKKLQDVHNF) [M-PTH(1-34), M=A1,Aib3,Q10,Har11,A12,W14,R19]
[6]
  ionized calcium response, in words: markedly more robust and more sustained than that of PTH(1-34)
[7]
  effect on bone turnover markers, in words: strongly induced increases in markers of both bone formation
[8]; Piximus, mice, 5 nmol/kg i.v. daily 14 days
  Lumbar Spine BMD: 0.0524 ± 0.0002 g/cm^2
[8]; mice, 5 nmol/kg i.v. daily 14 days
  effect on trabecular/cortical bone and BMD, in words: robustly increased trabecular bone, but also detectably diminished cortical bone
[8]; microCT distal femur
  Conn-Dens.: 263 ± 25 1/mm^3
  Cort Th.: 166 ± 6 μm
  Tb · N: 5.22 ± 0.34 1/mm
  Tb · Th: 71.5 ± 1.8 μm
  TbSp: 208 ± 17 μm
  TrabecularBV/TV: 35.0 ± 3.0%
[8]; microCT mid femur
  BA: 0.837 ± 0.022 mm^2
  BA/TA: 40.0 ± 0.8%
  Cort Th.: 151 ± 3 μm
  MA: 1.26 ± 0.04 mm^2
  TA: 2.10 ± 0.06 mm^2
[9]
  calcemic action compared with control peptides, in words: higher calcemic actions than did PTH(1-34)
